Assay results as given in ChEMBL document CHEMBL1201862, “PubChem BioAssay data set” (2004).
Values joined by “and” are separate entries in the source; they are usually repeats but may differ in a detail not shown here. Equal entries are not always repeated.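 48-hour exposure; five concentrations; linearly interpolated endpoints. GI50 marks 50% less growth.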 Active and inactive are the calls of the source. Cut-off read from the data, not from the text of the source: active = GI50 up to about 1.1 µM and inactive = higher.

What was measured:
Assay in all cases: inhibition of tumour cell growth, NCI panel, 48 h
CCRF-CEM = tested on: CCRF-CEM
SNB-75 = tested on: SNB-75
786-0 = tested on: 786-0
SK-MEL-28 = tested on: SK-MEL-28
SK-MEL-2 = tested on: SK-MEL-2
HCT-116 = tested on: HCT-116
TK-10 = tested on: TK-10
OVCAR-3 = tested on: OVCAR-3
LOX IMVI = tested on: LOX IMVI
Hs-578T = tested on: Hs-578T
HT-29 = tested on: HT-29
ACHN = tested on: ACHN
A549 = tested on: A549
CAKI-1 = tested on: CAKI-1
M14 = tested on: M14
SK-MEL-5 = tested on: SK-MEL-5
HOP-62 = tested on: HOP-62
UO-31 = tested on: UO-31
K562 = tested on: K562
DMS-114 = tested on: DMS-114

## NCCP(=O)(O)O
CCRF-CEM
  GI50: > 100 µM (inactive)
SNB-75
  GI50: > 100 µM (inactive)
786-0
  GI50: > 100 µM (inactive)
SK-MEL-28
  GI50: > 100 µM (inactive)
SK-MEL-2
  GI50: > 100 µM (inactive)
HCT-116
  GI50: > 100 µM (inactive)
TK-10
  GI50: > 100 µM (inactive)
OVCAR-3
  GI50: > 100 µM (inactive)
LOX IMVI
  GI50: > 100 µM (inactive)
Hs-578T
  GI50: > 100 µM (inactive)
HT-29
  GI50: > 100 µM (inactive)
ACHN
  GI50: > 100 µM (inactive)
A549
  GI50: > 100 µM (inactive)
CAKI-1
  GI50: > 100 µM (inactive)
M14
  GI50: > 100 µM (inactive)
SK-MEL-5
  GI50: > 100 µM (inactive)
HOP-62
  GI50: > 100 µM (inactive)
UO-31
  GI50: > 100 µM (inactive)
K562
  GI50: > 100 µM (inactive)

## NCCCNCCSSC/C=C\CSSCCNCCCN
CCRF-CEM
  GI50: 3.75 µM (inactive) and 4.3 µM (inactive)
SNB-75
  GI50: 39.5 µM (inactive) and 37.3 µM (inactive)
786-0
  GI50: > 100 µM (inactive)
SK-MEL-28
  GI50: > 100 µM (inactive)
SK-MEL-2
  GI50: 50.1 µM (inactive)
TK-10
  GI50: > 100 µM (inactive) and 60.3 µM (inactive)
DMS-114
  GI50: 67 µM (inactive) and 44.1 µM (inactive)
OVCAR-3
  GI50: 40.5 µM (inactive) and 42 µM (inactive)
LOX IMVI
  GI50: 45.2 µM (inactive) and 43.3 µM (inactive)
HT-29
  GI50: 14.2 µM (inactive) and 15.3 µM (inactive)
ACHN
  GI50: > 100 µM (inactive)
CAKI-1
  GI50: 36.1 µM (inactive) and 38.5 µM (inactive)
M14
  GI50: 34 µM (inactive) and 49 µM (inactive)
SK-MEL-5
  GI50: 41.1 µM (inactive) and 62.1 µM (inactive)
UO-31
  GI50: 65 µM (inactive) and 63.4 µM (inactive)
K562
  GI50: 19.2 µM (inactive) and 18.4 µM (inactive)

## COC(=O)c1c/c(=N\NC(=O)CC(=O)Nc2ccccc2OC)c2ccccc2o1
SNB-75
  GI50: > 100 µM (inactive)
786-0
  GI50: 66.4 µM (inactive)
SK-MEL-28
  GI50: > 100 µM (inactive)
SK-MEL-2
  GI50: > 100 µM (inactive)
HCT-116
  GI50: > 100 µM (inactive)
TK-10
  GI50: > 100 µM (inactive)
DMS-114
  GI50: > 100 µM (inactive)
OVCAR-3
  GI50: > 100 µM (inactive)
LOX IMVI
  GI50: 66.8 µM (inactive)
HT-29
  GI50: > 100 µM (inactive)
ACHN
  GI50: > 100 µM (inactive)
A549
  GI50: 74.8 µM (inactive)
CAKI-1
  GI50: > 100 µM (inactive)
M14
  GI50: > 100 µM (inactive)
SK-MEL-5
  GI50: 91.8 µM (inactive)
HOP-62
  GI50: > 100 µM (inactive)
UO-31
  GI50: > 100 µM (inactive)
K562
  GI50: 54.2 µM (inactive)

## CC1(C)CC(=O)C(=[N+]=[N-])C(=O)C1
CCRF-CEM
  GI50: > 100 µM (inactive)
SNB-75
  GI50: > 100 µM (inactive)
786-0
  GI50: > 100 µM (inactive)
SK-MEL-28
  GI50: > 100 µM (inactive)
SK-MEL-2
  GI50: > 100 µM (inactive)
HCT-116
  GI50: > 100 µM (inactive)
TK-10
  GI50: > 100 µM (inactive)
DMS-114
  GI50: > 100 µM (inactive)
OVCAR-3
  GI50: > 100 µM (inactive)
LOX IMVI
  GI50: > 100 µM (inactive)
HT-29
  GI50: > 100 µM (inactive)
ACHN
  GI50: > 100 µM (inactive)
A549
  GI50: > 100 µM (inactive)
CAKI-1
  GI50: > 100 µM (inactive)
M14
  GI50: > 100 µM (inactive)
HOP-62
  GI50: > 100 µM (inactive)
K562
  GI50: > 100 µM (inactive)

## NC(=O)c1ccc(Cl)c([N+](=O)[O-])c1
CCRF-CEM
  GI50: > 100 µM (inactive)
SNB-75
  GI50: > 100 µM (inactive)
786-0
  GI50: > 100 µM (inactive)
SK-MEL-28
  GI50: > 100 µM (inactive)
HCT-116
  GI50: > 100 µM (inactive)
TK-10
  GI50: > 100 µM (inactive)
DMS-114
  GI50: > 100 µM (inactive)
OVCAR-3
  GI50: > 100 µM (inactive)
LOX IMVI
  GI50: > 100 µM (inactive)
HT-29
  GI50: > 100 µM (inactive)
ACHN
  GI50: > 100 µM (inactive)
A549
  GI50: > 100 µM (inactive)
CAKI-1
  GI50: > 100 µM (inactive)
M14
  GI50: > 100 µM (inactive)
SK-MEL-5
  GI50: > 100 µM (inactive)
HOP-62
  GI50: > 100 µM (inactive)
UO-31
  GI50: > 100 µM (inactive)
K562
  GI50: > 100 µM (inactive)

## C/C(=N\Nc1ccc([N+](=O)[O-])cc1)C(=O)N(C)Nc1ccccc1
CCRF-CEM
  GI50: > 100 µM (inactive)
SNB-75
  GI50: 27.6 µM (inactive)
786-0
  GI50: > 100 µM (inactive)
SK-MEL-2
  GI50: 29.1 µM (inactive)
TK-10
  GI50: 64.3 µM (inactive)
DMS-114
  GI50: 48 µM (inactive)
OVCAR-3
  GI50: 43.9 µM (inactive)
LOX IMVI
  GI50: 64.4 µM (inactive)
HT-29
  GI50: 66.8 µM (inactive)
ACHN
  GI50: 35.4 µM (inactive)
A549
  GI50: 40.5 µM (inactive)
M14
  GI50: 43.2 µM (inactive)
HOP-62
  GI50: > 100 µM (inactive)
UO-31
  GI50: 39.9 µM (inactive)
K562
  GI50: 63.2 µM (inactive)

## N=C(N)n1ncc(Cl)c(Cl)c1=O
CCRF-CEM
  GI50: 2.15 µM (inactive)
SNB-75
  GI50: 2.99 µM (inactive)
786-0
  GI50: 2.76 µM (inactive)
SK-MEL-28
  GI50: 2.32 µM (inactive)
SK-MEL-2
  GI50: 2.47 µM (inactive)
HCT-116
  GI50: 1.73 µM (inactive)
TK-10
  GI50: 19.4 µM (inactive)
DMS-114
  GI50: 1.85 µM (inactive)
OVCAR-3
  GI50: 1.91 µM (inactive)
ACHN
  GI50: 3.81 µM (inactive)
A549
  GI50: 17.1 µM (inactive)
CAKI-1
  GI50: 1.81 µM (inactive)
M14
  GI50: 1.98 µM (inactive)
SK-MEL-5
  GI50: 4.39 µM (inactive)
UO-31
  GI50: 2.38 µM (inactive)
K562
  GI50: 2.32 µM (inactive)

## N#Cc1ccc(OCCSCCCCCCCCCCSCCOc2ccc(C#N)cc2)cc1
CCRF-CEM
  GI50: > 100 µM (inactive)
SNB-75
  GI50: > 100 µM (inactive)
786-0
  GI50: > 100 µM (inactive)
SK-MEL-28
  GI50: > 100 µM (inactive)
SK-MEL-2
  GI50: > 100 µM (inactive)
TK-10
  GI50: > 100 µM (inactive)
DMS-114
  GI50: 1.29 µM (inactive)
OVCAR-3
  GI50: > 100 µM (inactive)
LOX IMVI
  GI50: > 100 µM (inactive)
ACHN
  GI50: > 100 µM (inactive)
A549
  GI50: > 100 µM (inactive)
M14
  GI50: > 100 µM (inactive)
SK-MEL-5
  GI50: 3.03 µM (inactive)
HOP-62
  GI50: > 100 µM (inactive)
UO-31
  GI50: 0.402 µM (active)
K562
  GI50: > 100 µM (inactive)
